Source: patent US20240360113A1, “AMINOARYL-INTEGRIN AGONISTS COMPOUNDS” (Texas Heart Institute, priority 2021, published 2024)

Experiments:
α4β1/VCAM-1 = biological target: T1, α4β1/VCAM-1 (Homo sapiens, UniProt P05556+P13612); experiment: Static cell adhesion assay, Jurkat cells on VCAM-1 (VLA-4 agonist activity); type: cell-based; conditions: EC50 relative to THI0349 (average 11 uM) run on the same plate; Jurkat cells, 50% FBS
T1 construct: The Jurkat (VCAM-1 assays) and HSB (ICAM-1 assays) cell lines were obtained from American Type Culture Collection; endogenous in cells; host or cells: Jurkat (ATCC)
How it was run: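 Calcein-labelled Jurkat cells (2×10^5/well) were added to wells coated with a sub-optimal level of human VCAM-1 (0.5 μg/mL) in PBS, 1 mM MgCl2, 50% FBS with compound in 1% DMSO. After 30 min at 37° C. and washing, adherent-cell fluorescence was read. EC50 was the concentration giving 50% of maximal response.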

αLβ2/ICAM-1 = biological target: T2, αLβ2/ICAM-1 (Homo sapiens, UniProt P05107+P20701); experiment: Static cell adhesion assay, HSB cells on ICAM-1 (LFA-1; LAD); type: cell-based; conditions: RFU of compound / RFU of THI0349, both at the same concentration
T2 construct: The Jurkat (VCAM-1 assays) and HSB (ICAM-1 assays) cell lines were obtained from American Type Culture Collection; endogenous in cells; host or cells: HSB (ATCC)
How it was run: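 HSB cells were labeled with calcein-AM for 30 minutes, washed, resuspended in binding buffer (PBS with 2 mM MgCl2, 5 mM EGTA, 50% FBS) and plated at 2×10^5 cells/well in triplicate onto 96-well plates coated overnight at 4° C with ICAM-1 (5 μg/mL in 50 μL TBS) and blocked with 2% BSA. Compounds were tested in 1% DMSO. After 30 minutes at 37° C and three washes, adherent cells were lysed and fluorescence was read; results are compound RFU divided by THI0349 RFU.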

T1 sequence (P13612 34-1032): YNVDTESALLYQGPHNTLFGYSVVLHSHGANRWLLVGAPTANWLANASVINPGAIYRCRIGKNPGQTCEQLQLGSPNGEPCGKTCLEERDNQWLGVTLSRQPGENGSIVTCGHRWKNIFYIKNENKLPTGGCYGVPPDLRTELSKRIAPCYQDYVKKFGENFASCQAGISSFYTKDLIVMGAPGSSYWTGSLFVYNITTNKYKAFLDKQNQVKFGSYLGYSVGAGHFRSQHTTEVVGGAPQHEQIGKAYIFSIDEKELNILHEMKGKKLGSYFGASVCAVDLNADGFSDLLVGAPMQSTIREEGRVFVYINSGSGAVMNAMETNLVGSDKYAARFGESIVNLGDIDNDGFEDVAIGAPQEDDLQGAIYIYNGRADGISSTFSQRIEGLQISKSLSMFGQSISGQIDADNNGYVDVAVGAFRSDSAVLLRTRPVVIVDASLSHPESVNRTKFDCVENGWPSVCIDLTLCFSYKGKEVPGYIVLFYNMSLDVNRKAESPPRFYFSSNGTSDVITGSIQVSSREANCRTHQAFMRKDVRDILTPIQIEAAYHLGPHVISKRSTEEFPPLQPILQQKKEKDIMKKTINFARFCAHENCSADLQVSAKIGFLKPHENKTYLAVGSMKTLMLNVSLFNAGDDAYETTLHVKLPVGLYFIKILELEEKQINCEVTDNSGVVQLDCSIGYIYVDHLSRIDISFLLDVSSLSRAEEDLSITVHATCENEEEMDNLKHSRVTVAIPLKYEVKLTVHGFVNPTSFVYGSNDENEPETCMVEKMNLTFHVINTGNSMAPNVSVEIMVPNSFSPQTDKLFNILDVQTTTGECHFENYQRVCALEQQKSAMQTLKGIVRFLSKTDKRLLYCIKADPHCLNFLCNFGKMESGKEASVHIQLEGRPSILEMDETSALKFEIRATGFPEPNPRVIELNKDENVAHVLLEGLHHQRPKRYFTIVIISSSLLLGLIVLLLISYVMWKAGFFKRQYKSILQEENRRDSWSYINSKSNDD
T1 sequence (P05556 21-798): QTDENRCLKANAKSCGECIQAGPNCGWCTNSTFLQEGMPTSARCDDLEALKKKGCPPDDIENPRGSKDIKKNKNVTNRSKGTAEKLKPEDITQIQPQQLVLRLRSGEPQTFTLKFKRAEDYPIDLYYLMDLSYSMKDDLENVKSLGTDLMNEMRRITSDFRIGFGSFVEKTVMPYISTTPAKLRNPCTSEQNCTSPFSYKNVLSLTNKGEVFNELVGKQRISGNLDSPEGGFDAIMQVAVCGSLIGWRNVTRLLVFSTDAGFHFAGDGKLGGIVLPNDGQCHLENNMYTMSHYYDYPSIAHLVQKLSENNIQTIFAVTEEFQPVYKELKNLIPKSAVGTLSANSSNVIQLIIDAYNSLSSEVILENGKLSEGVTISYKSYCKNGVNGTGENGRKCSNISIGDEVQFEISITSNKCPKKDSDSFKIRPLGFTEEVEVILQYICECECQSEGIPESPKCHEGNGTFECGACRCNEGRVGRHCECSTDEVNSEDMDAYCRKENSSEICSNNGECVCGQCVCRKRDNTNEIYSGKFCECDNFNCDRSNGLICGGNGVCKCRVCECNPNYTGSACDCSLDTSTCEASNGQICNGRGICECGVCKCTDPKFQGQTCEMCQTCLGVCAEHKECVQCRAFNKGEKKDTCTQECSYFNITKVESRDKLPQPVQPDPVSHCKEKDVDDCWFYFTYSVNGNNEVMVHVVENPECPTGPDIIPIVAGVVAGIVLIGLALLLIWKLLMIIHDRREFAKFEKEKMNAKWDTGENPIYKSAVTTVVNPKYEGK
T2 sequence (P20701 26-1170): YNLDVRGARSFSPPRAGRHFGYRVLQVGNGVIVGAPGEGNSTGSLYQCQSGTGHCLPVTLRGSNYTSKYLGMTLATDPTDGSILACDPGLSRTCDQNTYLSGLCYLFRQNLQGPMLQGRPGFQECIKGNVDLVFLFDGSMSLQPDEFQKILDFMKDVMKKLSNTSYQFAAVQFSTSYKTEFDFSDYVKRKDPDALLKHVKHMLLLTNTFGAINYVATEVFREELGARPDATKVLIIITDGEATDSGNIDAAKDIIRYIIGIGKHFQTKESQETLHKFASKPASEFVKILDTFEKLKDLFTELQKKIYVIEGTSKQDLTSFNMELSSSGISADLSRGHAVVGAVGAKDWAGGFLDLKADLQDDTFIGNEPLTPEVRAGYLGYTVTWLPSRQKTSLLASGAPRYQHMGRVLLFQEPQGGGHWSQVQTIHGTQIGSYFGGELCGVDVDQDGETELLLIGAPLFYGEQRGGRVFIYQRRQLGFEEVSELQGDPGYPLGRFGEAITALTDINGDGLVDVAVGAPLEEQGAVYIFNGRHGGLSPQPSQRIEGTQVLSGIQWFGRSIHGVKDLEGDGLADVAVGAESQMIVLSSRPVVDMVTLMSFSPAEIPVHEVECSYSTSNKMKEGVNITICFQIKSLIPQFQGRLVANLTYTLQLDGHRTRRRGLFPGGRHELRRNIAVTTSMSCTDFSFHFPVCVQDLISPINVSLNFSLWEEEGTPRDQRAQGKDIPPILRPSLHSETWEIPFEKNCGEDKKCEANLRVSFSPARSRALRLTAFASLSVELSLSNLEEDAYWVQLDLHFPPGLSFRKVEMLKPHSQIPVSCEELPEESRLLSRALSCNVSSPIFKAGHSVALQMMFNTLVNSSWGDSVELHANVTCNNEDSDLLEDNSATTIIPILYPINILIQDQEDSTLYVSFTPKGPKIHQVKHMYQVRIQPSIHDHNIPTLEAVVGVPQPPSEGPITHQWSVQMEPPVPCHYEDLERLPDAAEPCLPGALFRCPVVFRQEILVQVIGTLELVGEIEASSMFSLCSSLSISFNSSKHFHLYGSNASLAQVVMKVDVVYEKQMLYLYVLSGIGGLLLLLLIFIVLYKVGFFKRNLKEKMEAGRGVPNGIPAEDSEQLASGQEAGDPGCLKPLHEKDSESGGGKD
T2 sequence (P05107 23-769): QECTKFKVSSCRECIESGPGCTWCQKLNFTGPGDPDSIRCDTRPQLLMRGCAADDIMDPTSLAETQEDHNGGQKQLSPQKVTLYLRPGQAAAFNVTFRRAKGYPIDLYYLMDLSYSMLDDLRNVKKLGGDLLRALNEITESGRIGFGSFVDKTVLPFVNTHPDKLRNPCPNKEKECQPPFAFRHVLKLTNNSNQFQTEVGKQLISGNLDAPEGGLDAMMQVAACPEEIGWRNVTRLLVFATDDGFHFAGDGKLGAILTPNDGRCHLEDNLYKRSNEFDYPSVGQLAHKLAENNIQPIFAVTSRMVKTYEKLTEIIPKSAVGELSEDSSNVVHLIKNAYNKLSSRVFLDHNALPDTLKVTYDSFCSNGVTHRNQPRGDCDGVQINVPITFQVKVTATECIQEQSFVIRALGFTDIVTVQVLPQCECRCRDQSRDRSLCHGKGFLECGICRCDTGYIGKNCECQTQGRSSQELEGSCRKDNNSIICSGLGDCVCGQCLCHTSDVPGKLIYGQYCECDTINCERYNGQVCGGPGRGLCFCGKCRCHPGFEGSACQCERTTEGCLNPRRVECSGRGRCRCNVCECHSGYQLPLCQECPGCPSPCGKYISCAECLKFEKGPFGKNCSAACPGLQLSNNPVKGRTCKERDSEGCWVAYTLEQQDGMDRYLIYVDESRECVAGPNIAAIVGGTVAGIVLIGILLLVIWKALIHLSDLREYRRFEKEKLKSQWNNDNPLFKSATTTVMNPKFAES

LAD Raw Fluorescence Units against LFA-1; Dose 3 µM; Ratio of raw counts Compound/THI0349 (αLβ2/ICAM-1) | Compound | Group against VCAM (α4β1/VCAM-1)
1.6 | COc1cccc(CN(Cc2cccc(OC)c2)c2nc(CN3CCCCC3)cs2)c1 [Compound 68, N,N-bis(3-methoxybenzyl)-4-(piperidin-1-ylmethyl)thiazol-2-amine] | II (Group II is more than twice that of THI0349 but less than five times THI0349's EC50)
0.33 | COc1cccc(CN(Cc2cccc(OC)c2)c2nc(CN3CCN(C)CC3)cs2)c1 [Compound 69, N,N-bis(3-methoxybenzyl)-4-((4-methylpiperazin-1-yl)methyl)thiazol-2-amine] | II (Group II is more than twice that of THI0349 but less than five times THI0349's EC50)
0.14 | COc1cccc(CN(Cc2cccc(OC)c2)c2nc3c(s2)CN(C(=O)OC(C)(C)C)CC3)c1 [Compound 70, tert-butyl 2-(bis(3-methoxybenzyl)amino)-6,7-dihydrothiazolo[5,4-c]pyridine-5(4H)-carboxylate] | III (Group III more than five times the EC50 of THI0349)
0.1 | COc1ccc(CCc2csc(N(Cc3cccc(OC)c3)Cc3cccc(OC)c3)n2)cc1 [Compound 71, N,N-bis(3-methoxybenzyl)-4-(4-methoxyphenethyl)thiazol-2-amine] | III (Group III more than five times the EC50 of THI0349)
0.12 | COc1cccc(CN(Cc2cccc(N(C)C)c2)c2nc(CN3CCOCC3)cs2)c1 [Compound 73, N-(3-(dimethylamino)benzyl)-N-(3-methoxybenzyl)-4-(morpholinomethyl)thiazol-2-amine] | II (Group II is more than twice that of THI0349 but less than five times THI0349's EC50)
0.3 | COCCOc1cccc(CN(Cc2cccc(OC)c2)c2nc(CN3CCOCC3)cs2)c1 [Compound 74, N-(3-methoxybenzyl)-N-(3-(2-methoxyethoxy)benzyl)-4-(morpholinomethyl)thiazol-2-amine] | I (Group I maintains at least the same potency or better up to more than twice that of the EC50 of THI0349 ran on the same plate)
0.59 | COc1cccc(CN(Cc2ccc(-n3cccn3)cc2)c2nc(CN3CCOCC3)cs2)c1 [Compound 75, N-(4-(1H-pyrazol-1-yl)benzyl)-N-(3-methoxybenzyl)-4-(morpholinomethyl)thiazol-2-amine] | I (Group I maintains at least the same potency or better up to more than twice that of the EC50 of THI0349 ran on the same plate)
0.31 | COc1cccc(CN(Cc2ccc3ncccc3c2)c2nc(CN3CCOCC3)cs2)c1 [Compound 76, N-(3-methoxybenzyl)-4-(morpholinomethyl)-N-(quinolin-6-ylmethyl)thiazol-2-amine] | II (Group II is more than twice that of THI0349 but less than five times THI0349's EC50)
0.34 | COc1cccc(CN(Cc2ccc3[nH]ncc3c2)c2nc(CN3CCOCC3)cs2)c1 [Compound 77, N-((1H-indazol-5-yl)methyl)-N-(3-methoxybenzyl)-4-(morpholinomethyl)thiazol-2-amine] | II (Group II is more than twice that of THI0349 but less than five times THI0349's EC50)
0.4 | COc1cccc(CN(Cc2cccc(N3CCOCC3)c2)c2nc(CN3CCOCC3)cs2)c1 [Compound 78, N-(3-methoxybenzyl)-N-(3-morpholinobenzyl)-4-(morpholinomethyl)thiazol-2-amine] | II (Group II is more than twice that of THI0349 but less than five times THI0349's EC50)
0.32 | COc1cccc(CN(Cc2cccc(-n3ccnc3)c2)c2nc(CN3CCOCC3)cs2)c1 [Compound 79, N-(3-(1H-imidazol-1-yl)benzyl)-N-(3-methoxybenzyl)-4-(morpholinomethyl)thiazol-2-amine] | II (Group II is more than twice that of THI0349 but less than five times THI0349's EC50)
0.53 | COc1cccc(CN(Cc2cccc(-n3cccn3)c2)c2nc(CN3CCOCC3)cs2)c1 [Compound 80, N-(3-(1H-pyrazol-1-yl)benzyl)-N-(3-methoxybenzyl)-4-(morpholinomethyl)thiazol-2-amine] | I (Group I maintains at least the same potency or better up to more than twice that of the EC50 of THI0349 ran on the same plate)
0.36 | COc1cccc(CN(Cc2cccc(OC)c2)c2nc(CN3CCOCC3)co2)c1 [Compound 81, N,N-bis(3-methoxybenzyl)-4-(morpholinomethyl)oxazol-2-amine] | II (Group II is more than twice that of THI0349 but less than five times THI0349's EC50)
0.05 | COc1cccc(CN(Cc2cccc(OC)c2)c2nc(COCCN(C)C)cs2)c1 [Compound 82, 4-((2-(dimethylamino)ethoxy)methyl)-N,N-bis(3-methoxybenzyl)thiazol-2-amine] | II (Group II is more than twice that of THI0349 but less than five times THI0349's EC50)
0.14 | COc1cccc(CN(Cc2cccc(OC)c2)c2nc(CCN3CCOCC3)cs2)c1 [Compound 84, N,N-bis(3-methoxybenzyl)-4-(2-morpholinoethyl)thiazol-2-amine] | I (Group I maintains at least the same potency or better up to more than twice that of the EC50 of THI0349 ran on the same plate)
0.03 | CCOC(=O)c1ccc(N(Cc2cccc(OC)c2)Cc2cccc(OC)c2)cc1 [Compound 85, ethyl 4-(bis(3-methoxybenzyl)amino)benzoate] | III (Group III more than five times the EC50 of THI0349)
0.2 | COc1cccc(CN(Cc2cccc(OC)c2)c2nc(COCCN3CCOCC3)co2)c1 [Compound 87, N,N-bis(3-methoxybenzyl)-4-((2-morpholinoethoxy)methyl)oxazol-2-amine] | I (Group I maintains at least the same potency or better up to more than twice that of the EC50 of THI0349 ran on the same plate)
0.18 | COc1cccc(CN(Cc2cccc(OC)c2)c2nc(COCCN3CCc4ccccc43)cs2)c1 [Compound 88, 4-((2-(indolin-1-yl)ethoxy)methyl)-N,N-bis(3-methoxybenzyl)thiazol-2-amine] | II (Group II is more than twice that of THI0349 but less than five times THI0349's EC50)
0.34 | COc1cccc(COCc2ccc(N(Cc3cccc(OC)c3)Cc3cccc(OC)c3)cc2)c1 [Compound 89, N,N-bis(3-methoxybenzyl)-4-((3-methoxybenzyloxy)methyl)aniline] | III (Group III more than five times the EC50 of THI0349)
0.09 | COc1cccc(COCc2cccc(N(Cc3cccc(OC)c3)Cc3cccc(OC)c3)c2)c1 [Compound 90, N,N-bis(3-methoxybenzyl)-3-(((3-methoxybenzyl)oxy)methyl)aniline] | III (Group III more than five times the EC50 of THI0349)
0.09 | COc1cccc(COc2ccc(N(Cc3cccc(OC)c3)Cc3cccc(OC)c3)cc2)c1 [Compound 91, N,N-bis(3-methoxybenzyl)-4-((3-methoxybenzyl)oxy)aniline] | III (Group III more than five times the EC50 of THI0349)
0.6 | COc1cccc(COc2cccc(N(Cc3cccc(OC)c3)Cc3cccc(OC)c3)c2)c1 [Compound 92, N,N-bis(3-methoxybenzyl)-3-((3-methoxybenzyl)oxy)aniline] | III (Group III more than five times the EC50 of THI0349)
0.29 | CCc1nnc(N(Cc2cccc(OC)c2)Cc2cccc(OC)c2)s1 [Compound 94, 5-ethyl-N,N-bis(3-methoxybenzyl)-1,3,4-thiadiazol-2-amine] | III (Group III more than five times the EC50 of THI0349)
0.09 | CCOC(=O)c1ccc(N(Cc2cccc(OC)c2)Cc2cccc(OC)c2)nc1 [Compound 95, ethyl 6-(bis(3-methoxybenzyl)amino)nicotinate] | III (Group III more than five times the EC50 of THI0349)
0.08 | CCOC(=O)c1cnc(N(Cc2cccc(OC)c2)Cc2cccc(OC)c2)nc1 [Compound 96, ethyl 2-(bis(3-methoxybenzyl)amino)pyrimidine-5-carboxylate] | III (Group III more than five times the EC50 of THI0349)
